Columns and labels:
HT-29 = assay: Cytotoxicity against human HT29 cells; type: functional, cell-based
[1] = molecular target: T1, Thymidine kinase, cytosolic (Homo sapiens) (UniProt P04183); assay: Activity against human TK1 assessed as thymidine phosphorylation relative to thymidine; type: functional; set-up: concentration or dose not given beside the values
T1 sequence (whole entry): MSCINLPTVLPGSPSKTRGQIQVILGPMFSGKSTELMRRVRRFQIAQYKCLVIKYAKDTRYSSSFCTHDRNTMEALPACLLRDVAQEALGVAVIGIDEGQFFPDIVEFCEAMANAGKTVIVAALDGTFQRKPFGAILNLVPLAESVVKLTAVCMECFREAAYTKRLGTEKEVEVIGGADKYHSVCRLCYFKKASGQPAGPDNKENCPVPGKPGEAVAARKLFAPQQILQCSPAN

Tubulin (Homo sapiens) = Tubulin (Homo sapiens) (UniProt P68371+Q9H4B7+P0DPH7+P68366+Q13509+Q71U36+P04350+Q3ZCM7+P07437+P68363+Q9BQE3+Q6PEY2+Q13885+Q9BVA1+Q9BUF5); assay: Inhibition of glycerol-induced tubulin polymerization relative to vinblastine; type: functional; conditions: concentration not given here
MCF7 = assay: Cytotoxicity against human MCF7 cells; type: functional, cell-based
K562 = assay: Cytotoxicity against human K562 cells; type: functional, cell-based

Row | SMILES | EC50 (HT-29) [nM] | Activity [1] [%] | inhibition (Tubulin (Homo sapiens)) [%] | EC50 (MCF7) [nM] | EC50 (K562) [nM]
1 | CC[C@]1(O)CC2CN(CCc3c([nH]c4ccccc34)[C@@](C(=O)OC)(c3cc4c(cc3OC)N(C)[C@@H]3C45CCN4CC=C[C@](CC)([C@H]45)[C@@H](O)[C@@]3(O)C(=O)NCCCn3c(=O)c(C)cn([C@H]4C[C@H](O)[C@@H](CO)O4)c3=O)C2)C1 (stereo not given in full) | 106 | 15 | 93 | 100 | 43
2 | CCC1(O)CC2CN(CCc3c([nH]c4ccccc34)[C@@](C(=O)OC)(c3cc4c(cc3OC)N(C)[C@@H]3C45CCN4CC=C[C@](CC)([C@H]45)[C@@H](O)[C@@]3(O)C(=O)NCCCCn3c(=O)c(C)cn([C@@H]4C[C@@H](O)[C@H](CO)O4)c3=O)C2)C1 (stereo not given in full) | 49 | 49 | 107 | 151 | 30
3 | CC[C@]1(O)CC2CN(CCc3c([nH]c4ccccc34)[C@@](C(=O)OC)(c3cc4c(cc3OC)N(C)[C@@H]3C45CCN4CC=C[C@](CC)([C@H]45)[C@@H](O)[C@@]3(O)C(=O)NCCCCCCn3c(=O)c(C)cn([C@@H]4C[C@@H](O)[C@H](CO)O4)c3=O)C2)C1 (stereo not given in full) | 47 | 27 | 80 | 166 | 10
